These results are taken from patent US10683278B2 (JINAN UNIVERSITY, priority 2015, dated 2020).

One experiment has as its system Molm-13 cells. The experiment can be described thus: Inhibition of proliferation of Molm-13 cells (CCK-8). The note with it: Homo sapiens, 72 h, mean±standard deviation of two independent tests. The experiment is classed as cell-based. Here is the method: [Worded in the source for another cell line; this cell line is reported under the same test.] (§1) 12000 g of compounds were centrifuged for 5 min, DMSO was added to make a 10^−2M stock solution, vortexed uniformly and sonicated for 10 min for standby application, and stored at −40° C. The compounds were diluted from the stock solution with saline to 10 times the concentration to be tested (concentration of DMSO in the system being no more than 0.5%) during the test.
(§2) The inhibitory effect of the compounds on the proliferation of MV4-11 cells was detected using a CCK-8 cell counting kit (Dojindo). The specific steps are as follows: the MV4-11 cells in logarithmic growth phase were seeded into a 96-well culture plate at a suitable density in 90 μL/well, cultured overnight, compounds at different concentrations were then added and acted on cells for 72 hr, and the solvent control group (negative control) was set up. The effect of the compounds on cell proliferation was detected using a CCK-8 cell counting kit (Dojindo) after the compounds had acted on the cells for 72 h. 10 μL of CCK-8 reagent was added to each well, same was placed in an incubator at 37° C. for 2-4 hours, and the reading from the full-wavelength microwell plate ELIASA SpectraMax 190 was performed with a wavelength of 450 nm.
(§3) IC50 value was calculated using a software included with ELIASA by the four-parameter regression.
(§4) IC50 for the inhibition of the compounds on each stain of cells was derived from two independent repeated tests, and the results are shown as the mean±standard deviation.

The target of a further experiment is T1, AXL kinase (Homo sapiens, UniProt P30530).
T1 construct: purchased Invitrogen PV4803
T1 sequence (P30530 26-894): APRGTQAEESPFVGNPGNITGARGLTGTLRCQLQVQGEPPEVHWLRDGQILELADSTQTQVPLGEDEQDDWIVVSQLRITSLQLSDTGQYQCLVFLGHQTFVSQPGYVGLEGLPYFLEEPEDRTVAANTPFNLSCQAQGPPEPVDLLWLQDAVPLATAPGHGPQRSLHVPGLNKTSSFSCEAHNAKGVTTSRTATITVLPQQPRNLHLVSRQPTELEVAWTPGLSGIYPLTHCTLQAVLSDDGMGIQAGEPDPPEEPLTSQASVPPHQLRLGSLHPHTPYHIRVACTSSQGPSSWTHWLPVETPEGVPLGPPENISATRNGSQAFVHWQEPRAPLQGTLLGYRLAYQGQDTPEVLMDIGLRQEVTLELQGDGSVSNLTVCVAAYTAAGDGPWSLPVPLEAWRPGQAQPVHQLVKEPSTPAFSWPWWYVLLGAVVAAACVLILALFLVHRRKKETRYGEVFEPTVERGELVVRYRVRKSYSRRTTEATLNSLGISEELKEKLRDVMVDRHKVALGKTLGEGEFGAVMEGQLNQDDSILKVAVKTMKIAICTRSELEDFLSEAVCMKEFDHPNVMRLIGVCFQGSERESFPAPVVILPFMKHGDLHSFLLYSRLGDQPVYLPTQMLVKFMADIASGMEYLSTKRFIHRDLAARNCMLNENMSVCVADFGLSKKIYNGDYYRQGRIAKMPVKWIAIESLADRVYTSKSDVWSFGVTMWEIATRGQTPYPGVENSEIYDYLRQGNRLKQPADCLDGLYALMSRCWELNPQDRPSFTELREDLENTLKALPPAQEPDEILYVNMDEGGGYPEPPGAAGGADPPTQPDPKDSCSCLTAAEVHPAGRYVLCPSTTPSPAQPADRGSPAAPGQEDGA
The experiment can be described thus: IC50 test on AXL kinase (Z′-LYTE FRET kinase activity detection). The experiment is classed as biochemical. Summed up:
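Z′-LYTE FRET readout: after 1 h kinase reaction (AXL, Tyr 2 peptide, ATP, compound dilutions), a 1 h protease step cuts unphosphorylated substrate. Excitation at 400 nm, signals at 445 nm and 520 nm used to derive IC50.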

In the next experiment the test system is MV4-11 cells. Briefly: Inhibition of proliferation of MV4-11 cells (CCK-8). The experiment is classed as cell-based. The note with it: Homo sapiens, 72 h, mean±standard deviation of two independent tests. As to the method:
as §1, §2, §3, §4

Where only a bound is given, the exact number is not on record here.

For `CCc1ccc2c(c1)c(=O)c(C(=O)Nc1ccc(Oc3ncnc4cc(OC)c(OC)cc34)c(F)c1)c(CC)n2C` [TL4830074, N-(4-(6,7-dimethoxyquinazolin-4-yloxy)-3-fluorophenyl)-2,6-diethyl-1-methyl-4-oxo-1,4-dihydroquinoline-3-carboxamide], the IC50 in the experiment with Molm-13 cells is more than 300 nM; against AXL kinase (Z′-LYTE FRET peptide assay, 1 h reaction), 9 nM; in the experiment on MV4-11 cells it was more than 500 nM. The “inhibitory activity on AXL kinase” value on AXL kinase (competitive experiment with ATP, in words) was “strong inhibitory activity”.

As usually defined, the IC50 is the concentration at which inhibition is half-maximal. A low value points to inhibition by little substance.
